According to article PMC8325119, “A Novel Class of Functionalized Synthetic Fluoroquinolones with Dual Antiproliferative - Antimicrobial Capacities” (Asian Pacific Journal of Cancer Prevention : APJCP, 2021):
Where “and” joins values, the source holds several entries; their conditions need not be identical. Equal values may be shown once. Read-outs that look alike come from different tables or passages of the source.

Tests used:
T47D cell line = assay: cells; conditions: Homo sapiens, T47D, 72 h, read-out: Cytotoxicity IC50 value, T47D cell line
Protocol: (§1) All reagents and chemicals of analytical grade were obtained from Sigma (Dorset, UK); unless stated otherwise. All chemicals, reagents and solvents (of analytical grade) were used directly without further purification. MCF7 cell line ATCC® HTB-22™, T47D cell line ATCC® HTB-133™, K562 cell line ATCC® CCL-243™, Panc1 cell line ATCC® CRL-1469™. A375.S2 cell line ATCC® CRL-1872™, A549 cell line ATCC® CCL-185™, HELA cell line ATCC® CCL-2™ were cultured in Dulbecco’s modified eagle’s medium (DMEM). (DMEM) containing foetal bovine serum (FBS) (Bio Whittaker, Verviers, Belgium), 4-(2-hydroxyethyl)-1-piperazine ethane sulfonic acid (HEPES) Buffer, L-glutamine, gentamicin, penicillin, and streptomycin sulphate (Sigma, St. Luis, MO, USA), trypsin, trypan blue, Ciprofloxacin HCl from Aarti drugs Ltd/India, was a kind gift from Pharma International Company- Amman; Fluconazole from Neopharma, United Arab Emirates, a kind gift from Pharmaceutical Research Unit, Amman; Trypon soya agar (TSA), trypon soya broth (TSB), sabouraud dextrose agar (SDA) were obtained from Liofilchem (Italy) or Oxoid LTD (Basingstoke, England), they were reconstituted and sterilized by autoclave at 121 °C for 15 min.
(§2) The cytotoxicity measurements were determined using Sulforhodamine B (SRB) colorimetric assay for cytotoxicity screening. The mechanism of reduction of cell viability was adopted as described previously (Arabiyat et al., 2016a,b; 2017; Alabsi et al., 2018; Jumah, 2018; AlShahrabi et al., 2020). Human periodontal ligament fibroblasts (PDL) are a primary normal cell culture for verification of selective cytotoxicity. […] Selectivity ratio as indicative factor of the safety of compounds was calculated by dividing IC50 of tested compound on normal fibroblasts by IC50 of the same compound on specific pathological cell line (Hoffman et al., 2011).

A549 cell line = assay: SRB cytotoxicity assay, A549 lung cancer cell line; conditions: Homo sapiens, A549, 72 h, read-out: Cytotoxicity IC50 value, A549 cell line
Protocol: as §1, §2

K562 cell line = assay: SRB cytotoxicity assay, K562 leukaemia cell line; conditions: Homo sapiens, K562, 72 h
Protocol: as §1, §2

PANC 1 cell line = assay: SRB cytotoxicity assay, PANC 1 pancreatic cancer cell line; conditions: Homo sapiens, PANC-1, 72 h, read-out: Cytotoxicity IC50 value, PANC 1 cell line
Protocol: as §1, §2

A375.S2 cell line = assay: SRB cytotoxicity assay, A375.S2 melanoma cell line; conditions: Homo sapiens, A375-S2, 72 h, read-out: Cytotoxicity IC50 value, A375.S2 cell line
Protocol: as §1, §2

HELA cell line = assay: SRB cytotoxicity assay, HELA cervical cancer cell line; conditions: Homo sapiens, HeLa, 72 h
Protocol: as §1, §2

MCF7 cell line = assay: SRB cytotoxicity assay, MCF7 breast cancer cell line; conditions: Homo sapiens, MCF7, 72 h, read-out: Cytotoxicity IC50 value, MCF7 cell line
Protocol: as §1, §2

PDL Fibroblasts = assay: SRB cytotoxicity on normal periodontal ligament fibroblasts, selective cytotoxicity; format: cell-based, Human; conditions: for IC50: Homo sapiens, Fibroblast, normal fibroblasts, SRB, 72 h, mean ± SD; for Selectivity index SI (HELA): IC50 on PDL fibroblasts divided by IC50 on HELA; for Selectivity index SI (A562): IC50 on PDL fibroblasts divided by IC50 on the cell line printed as A562; for Selectivity index SI (K562): IC50 on PDL fibroblasts divided by IC50 on K562
Protocol: as §2

[1] = read-out: Cytotoxicity IC50 value, K562 cell line, SRB, 72 h, 0.1-200 μg/mL range, mean ± SD, value in brackets
[2] = read-out: Cytotoxicity IC50 value, K562 cell line, SRB, 72 h, 0.1-200 μg/mL range, mean ± SD, NI = lack of cytotoxicity in range
[3] = read-out: Cytotoxicity IC50 value, HELA cell line, SRB, 72 h, 0.1-200 μg/mL range, mean ± SD, value in brackets
[4] = read-out: Cytotoxicity IC50 value, HELA cell line, SRB, 72 h, 0.1-200 μg/mL range, mean ± SD, NI = lack of cytotoxicity in range
[5] = 0.1-200 μg/mL range, NI = lack of cytotoxicity in range

Structure (SMILES) | IC50 (T47D cell line) | IC50 (A549 cell line) | IC50 (K562 cell line; [1]) [µg/mL] | IC50 (K562 cell line; [2]) | IC50 (PANC 1 cell line) | IC50 (A375.S2 cell line) | IC50 (HELA cell line; [3]) [µg/mL] | IC50 (HELA cell line; [4]) [µM] | IC50 (MCF7 cell line) | IC50 (PDL Fibroblasts; [5]) [µM] | IC50 (PDL Fibroblasts; value in brackets) [µg/mL] | Selectivity index SI (HELA) (PDL Fibroblasts) | Selectivity index SI (A562) (PDL Fibroblasts) | Selectivity index SI (PANC 1) (PDL Fibroblasts; IC50 on PDL fibroblasts divided by IC50 on PANC 1) | Selectivity index SI (K562) (PDL Fibroblasts) | Selectivity index SI (A375.S2) (PDL Fibroblasts; IC50 on PDL fibroblasts divided by IC50 on A375.S2)
COc1ccccc1Nc1c(F)cc2c(=O)c(C(=O)O)cn(C3CC3)c2c1N [4a, 8-amino-1-cyclopropyl-6-fluoro-7-(2-methoxy-phenylamino)-4-oxo-1,4-dihydro-quinoline-3-carboxylic acid] | 95.8 µM and 36.8 µg/mL | 153 µM and 58.7 µg/mL | 16.9 | 44 ± 3.88 µM | 113 µM and 43.4 µg/mL | 72.3 µM and 27.8 µg/mL | 15.5 | 40.4 ± 6.03 | > 200 µg/mL | 140 ± 10.5 | 53.8 | 3.46 | – | – | – | –
COc1ccc(Nc2c(F)cc3c(=O)c(C(=O)O)cn(C4CC4)c3c2N)cc1 [4c, 8-amino-1-cyclopropyl-6-fluoro-7-(4-methoxy-phenylamino)-4-oxo-1,4-dihydro-quinoline-3-carboxylic acid] | 77.2 µM and 29.6 µg/mL | 5.11 µM and 1.96 µg/mL | 20 | 52.1 ± 6.9 µM | 72.1 µM and 27.6 µg/mL | 248 µM and 95 µg/mL | 97.8 | 255 ± 2.15 | 57.4 µM and 22 µg/mL | 138 ± 8.26 | 53 | – | 27.07 | – | – | –
CCc1ccc(Nc2c(F)cc3c(=O)c(C(=O)O)cn(C4CC4)c3c2N)cc1 [4d, 8-Amino-1-cyclopropyl-6-fluoro-7-(4-ethyl-phenylamino)-4-oxo-1,4-dihydro-quinoline-3-carboxylic acid] | 53.7 µM and 20.5 µg/mL | 20.2 µM and 7.72 µg/mL | 15.9 | 41.8 ± 4.98 µM | 65.3 µM and 24.9 µg/mL | 47 µM and 17.9 µg/mL | 51.7 | 136 ± 4.58 | 21.3 µM and 8.14 µg/mL | 50.4 ± 4.28 | 19.2 | – | 2.49 | – | – | –
CCCCCCc1ccc(Nc2c(F)cc3c(=O)c(C(=O)O)cn(C4CC4)c3c2N)cc1 [4f, 8-Amino-1-cyclopropyl-6-fluoro-7-(4-hexyl-phenylamino)-4-oxo-1,4-dihydro-quinoline-3-carboxylic acid] | 308 µM and 135 µg/mL | 204 µM and 89.5 µg/mL | 30.4 | 69.4 ± 6.64 µM | 110 nM and 0.05 µg/mL | 244 µM and 107 µg/mL | 13.4 | 30.7 ± 3.79 | 300 nM and 0.13 µg/mL | 352 ± 7.36 | 154 | – | – | 3199.45 | – | –
COc1cccc(-n2nnc3c4c(cc(F)c32)c(=O)c(C(=O)O)cn4C2CC2)c1 [5b, 9-cyclopropyl-4-fluoro-3-(3-methoxy-phenyl)-6-oxo-6,9-dihydro-3H-[1,2, and 3] triazolo [4,5-h] quinoline-7-carboxylic acid] | 18 µM and 7.08 µg/mL | 196 µM and 77.2 µg/mL | 4.56 | 11.6 ± 0.61 µM | 178 µM and 70.2 µg/mL | 364 µM and 143 µg/mL | 26.3 | 66.9 ± 2.73 | 112 µM and 44.2 µg/mL | 143 ± 10.8 | 56.4 | – | – | – | 12.35 | –
COc1ccc(-n2nnc3c4c(cc(F)c32)c(=O)c(C(=O)O)cn4C2CC2)cc1 [5c, 9-cyclopropyl-4-fluoro-3-(4-methoxy-phenyl)-6-oxo-6,9-dihydro-3H-[1,2, and 3] triazolo [4,5-h] quinoline-7-carboxylic acid] | 398 µM and 156 µg/mL | 427 µM and 168 µg/mL | 97.4 | 248 ± 44.6 µM | > 200 µg/mL | 453 µM and 178 µg/mL | 179 | 454 ± 19.1 | > 200 µg/mL | 496 ± 52.5 | 195 | – | – | – | 2.00 | –
CCCCCCc1ccc(-n2nnc3c4c(cc(F)c32)c(=O)c(C(=O)O)cn4C2CC2)cc1 [5f, 9-cyclopropyl-4-fluoro-3-(4-hexyl-phenyl)-6-oxo-6,9-dihydro-3H-[1,2,3] triazolo[4,5-h]quinoline-7-carboxylic acid] | 232 µM and 104 µg/mL | 362 µM and 162 µg/mL | 14.1 | 31.5 ± 2.92 µM | 119 µM and 53.4 µg/mL | 508 µM and 227 µg/mL | 1.61 | 3.59 ± 0.05 | 181 µM and 81.1 µg/mL | 474 ± 33.5 | 212 | 132.15 | – | – | – | –
COc1ccc(-n2nnc3c4c(cc(F)c32)c(=O)c(C(=O)O)cn4C2CC2)c(OC)c1 [5g, 9-cyclopropyl-3-(2,4-dimethoxy-phenyl)-4-fluoro-6-oxo-6,9-dihydro-3H-[1,2,3] triazolo[4,5-h]quinoline-7-carboxylic acid] | 237 µM and 102 µg/mL | 474 µM and 205 µg/mL | 24.2 | 56 ± 8.04 µM | > 200 µg/mL | 272 µM and 118 µg/mL | 71.8 | 166 ± 26 | 143 µM and 61.9 µg/mL | 237 ± 13.5 | 102 | – | – | – | 4.23 | –
O=C(O)c1cn(C2CC2)c2c([N+](=O)[O-])c(NC3CCCCC3)c(F)cc2c1=O [7a, 7-cyclohexylamino-1-cyclopropyl-6-fluoro-8-nitro-4-oxo-1,4-dihydro-quinoline-3-carboxylic acid] | 51.2 µM and 19.9 µg/mL | 240 µM and 93.6 µg/mL | 11 | 28.2 ± 2.04 µM | 13.2 µM and 5.15 µg/mL | 246 µM and 102 µg/mL | 0.16 | 0.4 ± 0.05 | > 200 µg/mL | 29.9 ± 3.56 | 11.6 | 74.66 | – | – | – | –
Nc1c(NC2CCCCC2)c(F)cc2c(=O)c(C(=O)O)cn(C3CC3)c12 [8a, 8-amino-7-cyclohexylamino-1-cyclopropyl-6-fluoro-4-oxo-1,4-dihydro-quinoline-3-carboxylic acid] | 148 µM and 53.2 µg/mL | 44 µM and 15.8 µg/mL | 24.4 | 67.9 ± 6.76 µM | 137 µM and 49.1 µg/mL | 3.69 µM and 1.33 µg/mL | 45 | 125 ± 21.9 | > 200 µg/mL | 49.4 ± 2.71 | 17.8 | – | – | – | – | 12.48
O=C(O)c1cn(C2CC2)c2c(cc(F)c3c2nnn3C2CCCCC2)c1=O [9a, 3-cyclohexyl-9-cyclopropyl-4-fluoro-6-oxo-6,9-dihydro-3H-[1,2, and 3] triazolo [4,5-h] quinoline-7-carboxylic acid] | 299 µM and 110 µg/mL | 223 µM and 82.3 µg/mL | – | > 200 µg/mL | 162 µM and 60 µg/mL | 215 µM and 79.6 µg/mL | 27.6 | 74.8 ± 1.67 | 133 µM and 49.2 µg/mL | 252 ± 11.6 | 93.1 | 3.36 | – | – | – | –
